Results as given in US20220389008A1, “4-QUINOLINONE ANTIBACTERIAL COMPOUNDS” (Janssen Sciences Ireland Unlimited Company, priority 2019, published 2022).
Values joined by “and” are separate entries in the source; they are usually repeats but may differ in a detail not shown here. Equal values may be shown once. Read-outs that look alike come from different tables or passages of the source.

Tests used:
rCaCh = assay: CVS / cardio tox rCaCh; format: binding, rat
[1] = tested on: Mycobacterium tuberculosis (strain H37Ra), cyt bd; details: Mtb H37Ra; for (i) % OCR after cyt bd inhibitor: test compound 10 μM added after Compound X 0.9 μM; for (ii) % OCR after cccp: test compound 10 μM after Compound X 0.9 μM, then CCCP 1 μM
hERG = hERG (Homo sapiens, UniProt Q12809); assay: CVS / cardio tox hERG (DOF); format: binding; details: DOF; read-out: Cardio tox hERG(DOF) (IC50)
[2] = tested on: Mycobacterium tuberculosis strain H37Rv ΔctaE-ΔqcrCAB; assay: microbe, parasite or virus in culture; format: cell-based; details: 240 h
[3] = tested on: Mitochondrial toxicity (Glu/Gal); assay: Mitochondrial toxicity (Glu/Gal) assay; format: cell-based; design: key to Score: “negative” means that in the test, it was found to have low mitotoxicity (and hence no mitotoxicity alerts); “positive” means that there were some mitotoxicity alerts; “inconclusive” means that no accurate conclusion could be drawn; details: for Score: mitotoxicity score; for Δ IC50,glu/IC50,gal: ratio glu/gal
Source text: The compounds of the invention/examples may have advantages associated with in vitro potency, kill kinetics (i.e. bactericidal effect) in vitro, PK properties, food effect, safety/toxicity (including liver toxicity, coagulation, 5-LO oxygenase), metabolic stability, Ames II negativity, MNT negativity, aqueous based solubility (and ability to formulate) and/or cardiovascular effect e.g. on animals (e.g. anesthetized guinea pig). The data below that was generated/calculated may be obtained using standard methods/assays, for instance that are available in the literature or which may be performed by a supplier (e.g. Microsomal Stability Assay—Cyprotex, Mitochondrial toxicity (Glu/Gal) assay—Cyprotex, as well as literature CYP cocktail inhibition assays).

rNaCh = assay: CVS / cardio tox rNaCh; format: binding, rat; details: read-out: Cardio tox rNaCH (IC50)
[4] = galactose medium, read-out: IC50, gal
[5] = glucose medium, read-out: IC50, glu

hERG, sequence (Q12809 whole entry): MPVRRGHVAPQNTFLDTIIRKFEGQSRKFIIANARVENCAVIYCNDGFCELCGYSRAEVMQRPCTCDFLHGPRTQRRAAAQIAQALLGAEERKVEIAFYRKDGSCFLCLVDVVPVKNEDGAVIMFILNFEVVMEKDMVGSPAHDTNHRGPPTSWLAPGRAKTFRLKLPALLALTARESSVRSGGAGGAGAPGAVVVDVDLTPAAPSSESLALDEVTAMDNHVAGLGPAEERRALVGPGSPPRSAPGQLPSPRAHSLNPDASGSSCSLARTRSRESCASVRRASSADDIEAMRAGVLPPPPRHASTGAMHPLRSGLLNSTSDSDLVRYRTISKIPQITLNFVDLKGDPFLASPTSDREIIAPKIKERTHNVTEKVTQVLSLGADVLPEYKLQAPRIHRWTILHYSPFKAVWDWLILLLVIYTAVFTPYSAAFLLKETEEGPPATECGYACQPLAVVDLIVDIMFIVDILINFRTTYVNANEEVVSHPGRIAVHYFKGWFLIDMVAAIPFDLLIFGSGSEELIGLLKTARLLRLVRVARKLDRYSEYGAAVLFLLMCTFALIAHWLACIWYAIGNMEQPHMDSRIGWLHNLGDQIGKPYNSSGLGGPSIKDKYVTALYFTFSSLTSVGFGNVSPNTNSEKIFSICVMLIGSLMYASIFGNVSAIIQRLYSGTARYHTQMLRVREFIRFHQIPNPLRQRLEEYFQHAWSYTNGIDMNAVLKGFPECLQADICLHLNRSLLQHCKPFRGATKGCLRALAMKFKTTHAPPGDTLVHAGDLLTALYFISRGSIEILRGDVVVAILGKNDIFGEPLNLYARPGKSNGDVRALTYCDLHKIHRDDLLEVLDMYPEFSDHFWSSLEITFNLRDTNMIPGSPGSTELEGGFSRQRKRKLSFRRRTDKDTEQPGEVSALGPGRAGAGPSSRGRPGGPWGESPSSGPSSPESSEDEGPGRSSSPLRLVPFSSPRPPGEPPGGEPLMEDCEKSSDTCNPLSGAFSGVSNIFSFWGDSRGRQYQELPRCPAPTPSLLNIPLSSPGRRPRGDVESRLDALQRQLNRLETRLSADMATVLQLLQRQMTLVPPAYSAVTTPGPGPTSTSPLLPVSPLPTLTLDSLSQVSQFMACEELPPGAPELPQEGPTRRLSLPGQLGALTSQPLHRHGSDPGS

SMILES	Cardio tox rCaCh IC50 (µM) (rCaCh)	(i) % OCR after cyt bd inhibitor [1]	(ii) % OCR after cccp [1]	IC50 (hERG) [µM]	IC50 [2] [µM]	IC50 [3, 4]	IC50 [3, 5]	Score [3]	Δ IC50,glu/IC50,gal [3]	IC50 (rNaCh) [µM]
Cc1c(-c2nc3ccc(-c4ccc(C(F)(F)F)cc4)cn3n2)[nH]c2ccccc2c1=O [Compound 4]	> 10	32.75%	40.05%	> 10	1.25	50 µM	50 µM	negative	[x]0	2.3
Cc1c(-c2cc3ccc(-c4ccc(OC(F)(F)F)cc4)cn3n2)[nH]c2ccccc2c1=O [Compound 5]	>10, >10, >10	43.48%	49.26%	> 10	1.27	45.9 µM	106 µM	inconclusive	[x]2.32	> 10
Cc1c(-c2nc3ccc(-c4cccc(F)c4)cn3n2)[nH]c2ccccc2c1=O [Compound 12]	> 10	62.09%	79.37%	> 3.02	0.885	100 µM	100 µM	negative	[x]0	> 10
Cc1c(-c2nc3ccc(-c4nc(C(F)(F)F)cs4)cn3n2)[nH]c2ccccc2c1=O [Compound 18]	> 10	76.01%	98.7%	> 10	1.88	15.8 µM	23.4 µM	negative	[x]1.48	1.51
Cc1c(-c2nc3ccc(C(F)(F)F)cn3n2)[nH]c2ccccc2c1=O [Compound 19]	>10, >10, >10	99.4%	100.5%	> 10	–	100 µM	100 µM	negative	[x]0	> 10
Cc1c(-c2cc3ccc(-c4ccc(OC(F)(F)F)cc4)cn3c2)[nH]c2ccccc2c1=O [Compound 22]	> 10	82.7%	109.8%	> 10	3.75	9.9 µM	140 µM	positive	>13.3	6.9
Cc1c(-c2cc3cc(-c4ccc(OC(F)(F)F)cc4)ccn3c2)[nH]c2ccccc2c1=O [Compound 25]	>10, >10, >10	65.2%	114.3%	> 10	3.09	9.9 µM	200 µM	positive	>20.2	> 10
Cc1c(-c2nc3ccc(-c4ccc(OC(F)(F)F)nc4)cn3n2)[nH]c2ccccc2c1=O [Compound 26]	>10, >10, >10	71%	116.7%	> 10	7.69	9.59 µM	13.3 µM	negative	[x]1.39	> 10
Cc1c(-c2cn3ccc(Oc4ccc(OC(F)(F)F)cc4)cc3n2)[nH]c2ccccc2c1=O [Compound 29]	3.3	64.6%	118.5%	~9.1	–	53.7 µM	79.7 µM	negative	1.5	2.3
Cc1c(-c2nc3ccc(F)cn3n2)[nH]c2ccccc2c1=O [Compound 33]	>10, >10, >10	61.2%	123.6%	> 10	> 100	100 µM	100 µM	negative	[x]0	> 10
Cc1c(-c2cn3cc(Oc4ccc(OC(F)(F)F)cc4)ccc3n2)[nH]c2ccccc2c1=O [Compound 44]	3.8	76%	138.6%	1.5	9.75	58.5 µM	47.8 µM	negative	0.8	1.2
Cc1c(-c2cn3ccc(Cc4ccc(OC(F)(F)F)cc4)cc3n2)[nH]c2ccccc2c1=O [Compound 52]	~1.9	82.2%	148.1%	> 10	> 100	108 µM	134 µM	negative	1.2	7.4
Cc1c(-c2nc3ccc(Br)cn3n2)[nH]c2ccccc2c1=O [Compound 55]	>10, >10, >10	109.2%	148.3%	> 10	36.1	200 µM and 100 µM	200 µM and 100 µM	negative	[x]0;[x]0	> 10
Cc1c(-c2nc3ccc(-c4cn(CC(F)(F)F)nn4)cn3n2)[nH]c2ccccc2c1=O [Compound 58]	>10, >10, >10	139.74%	153.33%	> 10	> 25	100 µM	100 µM	negative	[x]0	> 10
Cc1c(-c2cn3cc(Cc4ccc(OC(F)(F)F)cc4)ccc3n2)[nH]c2ccccc2c1=O [Compound 63]	> 3.0	85.8%	157.9%	> 10	76.2	96.8 µM	200 µM	inconclusive	>1.7	2.8
COc1cc2[nH]c(-c3nc4ccc(-c5ccc(OC(F)(F)F)cc5)cn4n3)c(C)c(=O)c2cc1OC [Compound 70]	>10, >10, >10	102.2%	165.65%	> 10	> 50	27.1 µM	100 µM	inconclusive	[x]3.69	> 10
COc1ccc(-c2ccc3nc(-c4[nH]c5ccccc5c(=O)c4C)nn3c2)cc1 [Compound 90]	–	25,77%	30,69%	–	1.49	200 µM	200 µM	negative	[x]0	–
Cc1cc(-c2ccc3nc(-c4[nH]c5ccccc5c(=O)c4C)nn3c2)ccc1F [Compound 110]	–	40,37%	51,51%	–	3.78	200 µM	200 µM	negative	[x]0	–
Cc1ccc(-c2ccc3nc(-c4[nH]c5ccccc5c(=O)c4C)nn3c2)cc1F [Compound 124]	–	31,72%	37,02%	–	1.69	200 µM	200 µM	negative	[x]0	–
COc1cc(F)cc(-c2ccc3nc(-c4[nH]c5ccccc5c(=O)c4C)nn3c2)c1 [Compound 125]	–	45,66%	64,44%	–	0.664	200 µM	200 µM	negative	[x]0	–
Cc1c(-c2nc3ccc(-c4cc(F)cc(C(F)(F)F)c4)cn3n2)[nH]c2ccccc2c1=O [Compound 126]	–	43,71%	51,74%	–	10.8	15.5 µM	25 µM	inconclusive	[x]1.61	–
Cc1c(-c2nc3ccc(-c4cccc(CC(F)(F)F)c4)cn3n2)[nH]c2ccccc2c1=O [Compound 127]	–	49,62%	65,3%	–	3.23	15.8 µM	18.1 µM	negative	[x]1.14	–
